Values quoted from earlier work, collected in PMC5588751 (Nanotheranostics, 2017).

Tested on: blood-brain barrier (BBB)
Details: [20]

Ac-SHAVAS-NH2 [HAV4]
Brain delivery of Gd-DTPA (small molecular weight marker) (dose-dependent manner, MRI, ref [17], [18]): significantly enhanced | Duration of BBB opening for Gd-DTPA (small molecule) (pretreatment studies with Gd-DTPA detected by MRI, ref [18]): less than 1 h
